According to patent US20240210394A1, “MICROORGANISM CAPTURE FROM ANTIMICROBIAL-CONTAINING SOLUTION” (MOMENTUM BIOSCIENCE LIMITED, priority 2019, published 2024):

Columns and labels:
S. aureus [1] = test: Blood culture time to positivity (flip time), bead rescue vs no-rescue control; format: cell-based; conditions: for Flip time: Cefepime 164 mg/L blood; for Difference (Days) compared to BE / Flip time in Days: Vancomycin 500 mg/L blood, antibiotic-labelled line = BC control without beads; for Flip time in Days: bead rescue with named bead type; for Bead Rescue Flip time / Control Flip time in Days: antibiotic 500 mg/L blood
Protocol: An overnight culture of test organism was prepared in blood/broth medium (50:50 blood:broth medium from a BioMerieux SA culture bottle).
Ten-fold serial dilutions of overnight culture was prepared in blood/broth as required.
Antibiotic (abx) was added to whole human blood (in citrate-phosphate-dextrose, CPD, an anticoagulant) at required level.
Whole blood was used as the no-antibiotic control.
Test dilution(s) of organism was added to blood+antibiotic or blood only at 10 μL per mL of blood (sufficient prepared for experiment requirements). 100 μL plate count sample was taken (TO sample).
The inoculated samples were incubated at 37° C. (static) for 2-hour. 100 μL plate count sample was taken (T2 sample).
For the control, 5 mL of spiked blood+abx or blood only was added to blood culture bottles (BioMerieux SA culture bottle) using a vial adapter (West Pharmaceutical Services, Inc. PA, US) and incubated in the automated blood culture cabinet (adapter removed).
For the ‘rescue’ test, 5 mL of spiked blood+abx or blood only was treated with Momentum Capture Beads (Streptavidin-coated, −300 nm beads, Bio estapor, Merk Cat #BE-M 08/0.3) as below: • Momentum Capture Beads diluted in Detergent-free Microbial Binding Buffer (DMBB—Tris+NaCl)—50 μL beads:700 μL DMBB per clean-up • 750 μL of diluted beads added to 50 mL conical centrifuge tube • 5 mL of broth medium added to tube • 5 mL of spiked blood+abx or blood only added to tube • Incubate on ITL TherMix (Integrated Technologies Ltd. Kent, UK), 32.5° C./30 min/1000 rpm—ramped speed protocol • Magnetise on V&P magnet (V&P scientific Inc, CA, US) for 5 min then remove supernatant • Resuspend beads in 1 mL Detergent-free Wash Buffer (DWB—Tris+NaCl) off magnet and transfer to 2 mL Eppendorf flip-top tube on DynaMag-2 magnet (Thermo Fisher Scientific, Life Technologies Ltd. Paisley, UK) • Magnetise for 5 min then remove supernatant • Resuspend beads in 1 mL DWB off magnet then replace on DynaMag-2 magnet • Magnetise for 5 min then remove supernatant • Resuspend beads in 1 mL DWB, add to a fresh, unused blood culture bottle (BioMerieux SA culture bottle) containing standard blood culture growth medium using a vial adapter, and start incubation (adapter removed). • Blood culture bottles are incubated in the automated blood culture cabinet (BacT/ALERT BioMerieux) which records time to positivity. The “Flip” time is when a bottle turns positive as determined by the automated blood culture cabinet. • “Flip” time of each bottle is recorded. • Plate counts (Total Viable Count TVC) are recorded.
(§1) Day 1: Prepare overnight culture of test organism in blood/broth medium (50:50 blood:broth) and incubate at 37° C. in a shaking incubator.
Day 2: Prepare ten-fold serial dilution of overnight culture in blood/broth as required • Antibiotic added to whole blood (defibrinated horse blood) at required level • Whole blood as no-antibiotic control • Test dilution(s) of organism added to blood+antibiotic or blood only at 10 μL per mL of blood (sufficient prepared for experiment requirements) • 100 μL plate count sample taken (TO sample) • 2-hour incubation at 37° C. (static), to mimic organism exposure to antimicrobials in the patient • 100 μL plate count sample taken (T2 sample) • 5 mL of spiked blood+abx or blood only added to blood culture bottle (using vial adapter) and incubation started (adapter removed) • 5 mL of spiked blood+abx or blood only (from same source) treated with Momentum Capture Beads as below: • 1. Momentum Capture Beads diluted in Detergent-free Microbial Binding Buffer (DMBB)—50 μL beads:700 μL DMBB per clean-up • 2. 750 μL of diluted beads added to 50 mL conical centrifuge tube • 3. 5 mL of transfer medium added to tube • 4. 5 mL of spiked blood+abx or blood only added to tube • 5.

E. coli [2] = test: as above; format: cell-based; conditions: Cefepime 164 mg/L blood; for Flip time: Bead rescue; for Flip time in Days: Control (FA plus bottle)
Protocol: as §1
Day 2: Prepare ten-fold serial dilution of overnight culture in blood/broth as required and incubate at 37° C. for 2 h for outgrowth.
Add 5 mL of spiked blood+beads (set 1) and 5 mL of spiked blood/Abx+beads (set 3) to blood culture bottles (BioMerieux SA culture bottle) using a vial adapter (West Pharmaceutical Services, Inc. PA, US).
Remove the adaptor and incubate the blood culture bottles in the automated blood culture cabinet (BacT/ALERT BioMerieux) for up to 5 days.
Record the “Flip” time of each bottle or bottle result at the end of 5 days incubation. The “Flip” time is when a bottle turns positive as determined by the automated blood culture cabinet, which records time to positivity.
Day 1: Prepare overnight culture of test organism in blood/broth medium (50:50 blood:broth) and incubate at 37° C. (or 30° C. for C. neoformans) in a shaking incubator.
(or 30° C. for C. neoformans) for 2 h for outgrowth. • Antibiotic added to whole blood (defibrinated horse blood) at required level • Whole blood as no-antibiotic control • Test dilution(s) of organism added to blood+antibiotic or blood only at 10 μL per mL of blood (sufficient prepared for experiment requirements) • 100 μL plate count sample taken (TO sample) • 2-hour incubation (static) at 37° C. (or 30° C. for C. neoformans) • 100 μL plate count sample taken (T2 sample) • 5 mL of spiked blood+abx or blood only added to blood culture bottle (using vial adapter) and incubation started (adapter removed) • 5 mL of spiked blood+abx or blood only (from same source) treated with Momentum Capture Beads as below: • 1. Capture Beads diluted in the relevant Capture Reagent—50 μL beads:700 μL capture reagent per clean-up • 2. 750 μL of diluted beads added to 50 mL conical centrifuge tube • 3. 5 mL of transfer medium added to tube • 4. 5 mL of spiked blood+abx or blood only added to tube • 5. […] Magnetise on V&P magnet for 10 min then remove supernatant • 7. Resuspend beads in 1 mL Detergent-free Wash Buffer (DWB) off magnet and transfer to 2 mL Eppendorf flip-top tube on DynaMag-2 magnet • 8. Magnetise for 3 min then remove supernatant • 9. Resuspend beads in 1 mL Detergent-free Wash Buffer (DWB) off magnet then replace on DynaMag-2 magnet • 10. Magnetise for 3 min then remove supernatant • 11. Resuspend beads in 1 mL DWB, add to new blood culture bottle (using vial adapter) and start incubation (adapter removed)
Momentum Capture Beads diluted in the relevant Capture Reagent—50 μL beads:700 μL capture reagent per clean-up • 2. 750 μL of diluted beads added to 50 mL conical centrifuge tube • 3. 5 mL of transfer medium added to tube • 4. 5 mL of spiked blood+abx or blood only added to tube • 5. […] Magnetise on V&P magnet for 10 min then remove supernatant • 7. Resuspend beads in 1 mL Detergent-free Wash Buffer (DWB) off magnet and transfer to 2 mL Eppendorf flip-top tube on DynaMag-2 magnet • 8. Magnetise for 3 min then remove supernatant • 9. Resuspend beads in 1 mL Detergent-free Wash Buffer (DWB) off magnet then replace on DynaMag-2 magnet • 10. Magnetise for 3 min then remove supernatant • 11. Resuspend beads in 1 mL DWB, add to an unused blood culture bottle (BioMerieux FA+culture bottle) using vial adapter and start incubation (adapter removed)

Pseudomonas aeruginosa = conditions: P. aeruginosa; cited from earlier work
S. aureus [3] = conditions: cited from earlier work
E. coli [4] = conditions: cited from earlier work
Klebsiella pneumoniae = conditions: K. pneumoniae; cited from earlier work
S. aureus [5] = test: Antibiotic breakpoint experiment (plate counts at 0, 2.5 and 5 hours); format: cell-based; conditions: two different strains of S. aureus, every time point
Protocol: To determine a starting point in terms of antibiotic concentration and microbial load for subsequent experiments. Antibiotic concentration ranges were tested to find appropriate breakpoints for use in experiments. A range of antibiotic concentrations were tested against a given microbial load to determine the concentration at which growth was inhibited but the microorganisms were not killed. This was determined by plate counts at intervals of 0, 2.5 and 5 hours.
• 1. Day 1: Prepare an overnight culture of the test organism in 3 mL of blood/broth solution (1.5 mL defibrinated Horse blood: 1.5 mL transfer Medium). • 2. Day 2: Dissolve antibiotic in required diluent to prepare a suitable stock solution and prepare a dilution series in Nuclease-free Water to cover a final concentration range of 100 to 0.001 and Omg/L. • 3. Dilute the overnight culture of the microorganism to the required point in pre-warmed blood/broth solution. This may require determining for each organism/antibiotic combination, but as a starting dilution 10-4 will be used (giving a final concentration in the sample of 10-5). • 4. Aliquot 980 μL of pre-warmed defibrinated horse blood into the required number of 2 mL flip-top tube. • 5. […]
The concentrations determined by this protocol were used in the following examples unless stated otherwise. […]

CO/N=C(\C(=O)N[C@@H]1C(=O)N2C(C(=O)[O-])=C(C[N+]3(C)CCCC3)CS[C@H]12)c1csc(N)n1 [Cefepime]
Flip time (S. aureus [1]; Bead rescue, 125000 cfu/5 mL blood): 0.46 days
Flip time (S. aureus [1]; Bead rescue, 750000 cfu/5 mL blood): 0.39 days
Flip time (S. aureus [1]; Control (FA plus bottle), 125000 cfu/5 mL blood): 2.69 days
Flip time (S. aureus [1]; Control (FA plus bottle), 750000 cfu/5 mL blood): 2.49 days
Flip time (E. coli [2]; 125000 cfu/5 mL blood): 0.47 days
Flip time (E. coli [2]; 1250000 cfu/5 mL blood): 0.38 days
Flip time in Days (E. coli [2]; 125000 cfu/5 mL blood): Neg
Flip time in Days (E. coli [2]; 1250000 cfu/5 mL blood): Neg
MIC (Pseudomonas aeruginosa): ≤1 µg/mL
MIC (S. aureus [3]): ≤4 µg/mL
MIC (E. coli [4]): ≤1 µg/mL
MIC (Klebsiella pneumoniae): ≤1 µg/mL

CN[C@H](CC(C)C)C(=O)N[C@H]1C(=O)N[C@@H](CC(N)=O)C(=O)N[C@H]2C(=O)N[C@H]3C(=O)N[C@H](C(=O)N[C@H](C(=O)O)c4cc(O)cc(O)c4-c4cc3ccc4O)[C@H](O)c3ccc(c(Cl)c3)Oc3cc2cc(c3O[C@@H]2O[C@H](CO)[C@@H](O)[C@H](O)[C@H]2O[C@H]2C[C@](C)(N)[C@H](O)[C@H](C)O2)Oc2ccc(cc2Cl)[C@H]1O [Vancomycin]
No-rescue blood culture control result (S. aureus [1]; Example 23, S. aureus in blood containing 500 mg/L Vancomycin): negative after 5 days
No-rescue blood culture controls result (S. aureus [1]; Example 24, S. aureus in blood containing 500 mg/L Vancomycin): negative
Difference (Days) compared to BE (S. aureus [1]; 20000 Cfu/mL): Negative
Flip time in Days (S. aureus [1]; 20000 Cfu/mL): Negative
Difference (Days) compared to BE (S. aureus [1]; 35760 Cfu/mL): Negative
Flip time in Days (S. aureus [1]; 35760 Cfu/mL): Negative
Difference (Days) compared to BE (S. aureus [1]; 200000 Cfu/mL): Negative
Flip time in Days (S. aureus [1]; 200000 Cfu/mL): Negative
Difference (Days) compared to BE (S. aureus [1]; 357600 Cfu/mL): Negative
Flip time in Days (S. aureus [1]; 357600 Cfu/mL): Negative
Bead Rescue Flip time (S. aureus [1]; 1000 cfu/5 mL Blood): 1.15 days
Control Flip time in Days (S. aureus [1]; 1000 cfu/5 mL Blood): Neg
Bead Rescue Flip time (S. aureus [1]; 100000 cfu/5 mL Blood): 0.66 days
Control Flip time in Days (S. aureus [1]; 100000 cfu/5 mL Blood): Neg
Bead Rescue Flip time (S. aureus [1]; 1000000 cfu/5 mL Blood): 0.61 days
Control Flip time in Days (S. aureus [1]; 1000000 cfu/5 mL Blood): Neg
Growth in antibiotic dilution series (breakpoint experiment) (S. aureus [5]): grew in every dilution
